Assay [1] has as its target T1, GPR78 (Homo sapiens, UniProt Q96P69).
T1 construct: Full length open reading frames (ORFS) of GPR78 and GPR26 were obtained with PCR; expressed in transfected cells; host or cells: HEK293/cre-luc
The assay is described as follows: cre-luciferase cAMP reporter assay in GPR78-transfected HEK293/cre-luc cells. The class given is cell-based. The following applies: for effect on genistein-induced cAMP: FIG. 6A; for cAMP level compared with GPR78-expressing cells stimulated with buffer (Basal): Tyrphostin B42 at 23 μM, Tyrphostin A9 at 24 μM; for cAMP level compared to buffer control / genistein: isoflavones, FIG. 3; for cAMP stimulation: final concentration 300 μM in 1.5% DMSO, luciferase reporter assay and direct cAMP measurement (Perkin-Elmer kit). The procedure: (§1) HEK293/cre-luc cells were harvested by 0.05% trypsin EDTA buffer, cells re-suspended in complete culture medium 20 million in […] transfection cuvette, 1 microgram receptor plasmid was transfected into reporter cells by electroporation method. The parameter of the GenePulser (Bio-Rad Laboratories, Hercules, Calif.) was set at: voltage 200 volts and capacity 500 microfarads. After electroporation, cells were re-suspended at a density of 25,000 cells in 25 μl complete medium, placed in 384-well plate. After 24 hours of transfection, the transfection medium was replaced with fresh complete medium. Empty plasmid vector was transfected as a negative control (mock transfection).
When inhibitors were used in the assay, they were added 30 minutes before cell stimulation. At the end of incubation, 25 μl of Bright-Glo™ obtained from Promega (Madison, Wis.) was added into each well. Luciferase activity was determined with a luminometer (Luminoskan Ascent®, Thermo-Electron Corp.), at a speed of 100 milliseconds per well.
Response of cells with the expressed receptor to test ligand stimulation was subject to two types of detection: intracellular cAMP accumulation and intracellular Ca2+ flux monitored with fluorescent intensity using a Fluorimetric Image Plate Reader (FLIPR).

For a further assay, the target named is protein kinase A. As to conditions: ref [27]; read-out: reported IC50 of H89; cited from earlier work.
The target in a further assay is adenylyl cyclase. The following applies: cell-free enzyme assays, ref [28]; read-out: published IC50; cited from earlier work.
In the next assay the target is protein tyrosine kinase. The following applies: literature values; for genistein depending on the substrates used; read-out: IC50, inhibition of protein tyrosine kinase; cited from earlier work.
The next assay relates to rabbit aortic rings. The following applies: read-out: IC50, block of acetylcholine-induced relaxation, ref [40]; cited from earlier work.
For assay [2], the target named is T2, GPR26 (Homo sapiens, UniProt Q8NDV2).
T2 construct: Full length open reading frames (ORFS) of GPR78 and GPR26 were obtained with PCR; expressed in transfected cells; host or cells: HEK293/cre-luc
The assay is described as follows: antagonist cre-luc reporter assay, inhibition of GPR26 activation. Type of assay: cell-based. The method, then: (§2) Screening was performed by using cells transiently expressing GPR26 or GPR78. HEK293/cre-luc cells were harvested by using 0.05% trypsin EDTA solution, and were suspended in complete culture medium at a density of 20 million in 0.4 ml transfection cuvettes. One 1 microgram plasmid construct containing GPR78 or GPR26 cDNA was transfected into reporter cells by electroporation using the GenePulser (Bio-Red Laboratories, Hercules, Calif.). The transfection conditions were: voltage at 200 volts and capacity at 500 microfarads. After electroporation, cells were suspended at a density of 25,000 cells in 25 μl complete medium and placed in a 384-well plate. After 24 hours of transfection, the transfection medium was replaced with fresh complete medium. Empty plasmid vector was transfected as a negative control (mock transfection). The compounds were arranged in 96-well format in eight racks of 80, with one compound per well (250 μl at 10 mM in DMSO). […] By the end of incubation, 25 ul of Bright-Glo™ (Promega, Madison, Wis.) was added into each well. Luciferase activity was determined with a Luminometer (Luminoskan Ascent, Thermo Labsystems), at a speed of 100 milliseconds per well.
(§3) To determine the inhibitory potency of the two molecules, dose-response curves were generated with the same assay method and IC50 values calculated from the curves.

A further assay addresses NO synthase (NOS) (Mus musculus, UniProt P29477). As to conditions: read-out: IC50, inhibition of NOS; cultured peritoneal macrophages, ref [40]; cited from earlier work.
Assay [3] has as its target T1, GPR78. The assay is described as follows: antagonist cre-luc reporter assay, inhibition of GPR78 activation. Type of assay: cell-based. The method, then: as §2, §3
Another assay deals with T3, GPR30 (Homo sapiens, UniProt Q99527).
T3 construct: host or cells: MCF-7, MDA-MB-231, SKBR3 (as cited)
The following applies: Gβγ-mediated pathway, ref [25]; cited from earlier work.

The target of assay [4] is T1, GPR78. The assay is described as follows: Ca2+ flux assay (FLIPR) in GPR78-expressing HEK/cre-luc cells. Type of assay: cell-based. The following applies: genistein at concentrations near 100 μM, FIG. 5. The text has this:
Response of cells with the expressed receptor to test ligand stimulation was subject to two types of detection: intracellular cAMP accumulation and intracellular Ca2+ flux monitored with fluorescent intensity using a Fluorimetric Image Plate Reader (FLIPR). For cAMP measurement, a HEK293 cell line that had been stably transfected with luciferase reporter gene, was used as a host cell transiently transfected with the pCR3.1-GPR78 construct described in Example 1.
(§4) Ca2+ flux measurements were taken to test if GPR78, when activated with genistein, is coupled to the Gq-mediated pathway.

Assay [5] addresses T2, GPR26. The assay is described as follows: direct intracellular cAMP measurement (Meso Scale Discovery kit) in HEK293/cre-luc cells stably transfected with GPR26. The class given is cell-based. As to conditions: cells stably expressing GPR26, FIG. 8B. The method, then:
(§5) Constructs PCR3.1-GPR78 and PCR3.1-GPR26 were transfected into HEK293/cre-luc cells with use of Lipofectamine™ 2000 and cells were selected for G418 resistance. Cells resistant to G418 were further diluted and selected for individual colonies. Cell lines grown from the G418-resistant colonies were screened for positive response with genistein in the Cre-Luciferase cAMP assay.
(§6) Intracellular cAMP was measured directly with a cAMP kit purchased from Meso Scale Discovery (Gaithersburg, Md., Ma6000 cAMP 384-well Kit, Catalog number K210FDD-2). The assay was preformed by following the manufacturer's protocol. Briefly, stable HEK293/cre-luc cells expressing GPR78 or GPR26 were harvested, washed with PBS and resuspended at 300,000/10 μl of assay buffer (from the kit) containing 0.5 mM IBMX. Genistein at appropriate concentrations was diluted in the cAMP assay buffer and 5 μl was added into wells of the assay plate. The mixture was then incubated at room temperature for 30 minutes. Light intensity in assay wells was measured using a MSD SI6000 instrument obtained from Meso Scale Discovery.
(§7) GPR26, another orphan GPCR, shares 51% identity in the seven transmembrane regions with GPR78 ([19]). […] HEK293/cre-luc cells were transiently transfected with pCR3.1-GPR26 and monitored cAMP levels upon stimulation with genistein. […]

The target of assay [6] is T1, GPR78. The assay is described as follows: direct intracellular cAMP measurement (Meso Scale Discovery kit) in HEK293/cre-luc cells stably transfected with GPR78. The following applies: FIG. 2C, read-out: EC50, increase of cAMP level. The class given is cell-based. The method, then: as §5, §6
In assay [7] the target is T2, GPR26. The assay is described as follows: cre-luciferase cAMP reporter assay in GPR26-transfected HEK293/cre-luc cells. Type of assay: cell-based. As to conditions: cre-luc reporter assay, transient transfection, FIG. 8A; read-out: EC50, activation of GPR26. The procedure:
as §1
Forty hours after transfection, cells were stimulated by adding 5 μl of ligand in 60 μM 4-(3-butoxy-4-methoxy-benzyl)-2-Imidazolidinone in 293 SFM II serum-free media obtained from Gibco (Gaithersburg, Md.), and incubated for 6 hours at 37° C. in a 5% CO2-95% air incubator. […] Luciferase activity was determined with a luminometer (Luminoskan Ascent®, Thermo-Electron Corp.), at a speed of 100 milliseconds per well.
as §7

For a further assay, the target named is T4, GPR154 (Homo sapiens, UniProt Q6W5P4).
T4 construct: expressed in transfected cells; host or cells: HEK293/cre-luc
T4 sequence (Q6W5P4 1-371): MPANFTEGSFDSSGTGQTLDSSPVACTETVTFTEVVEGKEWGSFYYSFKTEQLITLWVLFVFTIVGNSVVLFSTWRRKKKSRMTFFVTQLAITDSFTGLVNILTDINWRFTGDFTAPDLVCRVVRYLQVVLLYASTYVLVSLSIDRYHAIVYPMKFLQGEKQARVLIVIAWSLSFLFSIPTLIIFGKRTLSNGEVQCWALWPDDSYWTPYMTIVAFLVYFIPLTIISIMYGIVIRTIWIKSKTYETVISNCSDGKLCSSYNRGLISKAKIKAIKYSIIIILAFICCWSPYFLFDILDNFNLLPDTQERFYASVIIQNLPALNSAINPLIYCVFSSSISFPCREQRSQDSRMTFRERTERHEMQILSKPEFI
The assay is described as follows: Ca2+ flux assay (FLIPR), positive control receptor. Type of assay: cell-based. As to conditions: FIG. 5.
From the text: as §4

Where two headings read alike, the source gives them in different places.

T2 sequence (Q8NDV2 whole entry): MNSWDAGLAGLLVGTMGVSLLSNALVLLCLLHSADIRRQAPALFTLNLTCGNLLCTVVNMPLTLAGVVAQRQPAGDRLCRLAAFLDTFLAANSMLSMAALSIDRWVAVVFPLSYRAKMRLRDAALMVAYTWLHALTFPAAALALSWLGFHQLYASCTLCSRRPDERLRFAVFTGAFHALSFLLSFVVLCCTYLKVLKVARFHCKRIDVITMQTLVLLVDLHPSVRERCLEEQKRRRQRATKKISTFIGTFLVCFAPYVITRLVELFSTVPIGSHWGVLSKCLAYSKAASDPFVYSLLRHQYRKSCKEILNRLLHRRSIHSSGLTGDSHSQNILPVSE
T1 sequence (Q96P69 whole entry): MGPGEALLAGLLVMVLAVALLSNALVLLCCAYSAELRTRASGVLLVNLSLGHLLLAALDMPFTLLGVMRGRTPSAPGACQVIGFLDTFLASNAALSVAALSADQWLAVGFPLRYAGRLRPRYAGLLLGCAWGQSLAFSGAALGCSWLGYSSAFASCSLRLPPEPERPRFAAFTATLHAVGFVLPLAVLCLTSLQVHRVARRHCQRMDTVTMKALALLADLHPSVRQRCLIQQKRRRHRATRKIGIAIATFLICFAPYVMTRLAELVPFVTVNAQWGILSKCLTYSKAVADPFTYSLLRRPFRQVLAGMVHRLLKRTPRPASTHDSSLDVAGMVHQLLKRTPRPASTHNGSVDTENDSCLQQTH
T3 sequence (Q99527 whole entry): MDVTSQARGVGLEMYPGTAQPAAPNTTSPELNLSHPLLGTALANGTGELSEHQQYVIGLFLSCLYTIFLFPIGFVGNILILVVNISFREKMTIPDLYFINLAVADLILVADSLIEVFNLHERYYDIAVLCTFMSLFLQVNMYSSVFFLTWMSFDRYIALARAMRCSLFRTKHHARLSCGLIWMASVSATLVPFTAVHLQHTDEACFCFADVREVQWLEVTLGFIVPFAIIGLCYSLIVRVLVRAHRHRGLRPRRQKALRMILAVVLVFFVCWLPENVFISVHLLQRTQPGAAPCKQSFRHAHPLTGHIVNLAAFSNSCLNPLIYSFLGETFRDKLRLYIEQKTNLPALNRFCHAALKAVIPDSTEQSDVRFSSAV
Sequence of NO synthase (NOS) (P29477 whole entry): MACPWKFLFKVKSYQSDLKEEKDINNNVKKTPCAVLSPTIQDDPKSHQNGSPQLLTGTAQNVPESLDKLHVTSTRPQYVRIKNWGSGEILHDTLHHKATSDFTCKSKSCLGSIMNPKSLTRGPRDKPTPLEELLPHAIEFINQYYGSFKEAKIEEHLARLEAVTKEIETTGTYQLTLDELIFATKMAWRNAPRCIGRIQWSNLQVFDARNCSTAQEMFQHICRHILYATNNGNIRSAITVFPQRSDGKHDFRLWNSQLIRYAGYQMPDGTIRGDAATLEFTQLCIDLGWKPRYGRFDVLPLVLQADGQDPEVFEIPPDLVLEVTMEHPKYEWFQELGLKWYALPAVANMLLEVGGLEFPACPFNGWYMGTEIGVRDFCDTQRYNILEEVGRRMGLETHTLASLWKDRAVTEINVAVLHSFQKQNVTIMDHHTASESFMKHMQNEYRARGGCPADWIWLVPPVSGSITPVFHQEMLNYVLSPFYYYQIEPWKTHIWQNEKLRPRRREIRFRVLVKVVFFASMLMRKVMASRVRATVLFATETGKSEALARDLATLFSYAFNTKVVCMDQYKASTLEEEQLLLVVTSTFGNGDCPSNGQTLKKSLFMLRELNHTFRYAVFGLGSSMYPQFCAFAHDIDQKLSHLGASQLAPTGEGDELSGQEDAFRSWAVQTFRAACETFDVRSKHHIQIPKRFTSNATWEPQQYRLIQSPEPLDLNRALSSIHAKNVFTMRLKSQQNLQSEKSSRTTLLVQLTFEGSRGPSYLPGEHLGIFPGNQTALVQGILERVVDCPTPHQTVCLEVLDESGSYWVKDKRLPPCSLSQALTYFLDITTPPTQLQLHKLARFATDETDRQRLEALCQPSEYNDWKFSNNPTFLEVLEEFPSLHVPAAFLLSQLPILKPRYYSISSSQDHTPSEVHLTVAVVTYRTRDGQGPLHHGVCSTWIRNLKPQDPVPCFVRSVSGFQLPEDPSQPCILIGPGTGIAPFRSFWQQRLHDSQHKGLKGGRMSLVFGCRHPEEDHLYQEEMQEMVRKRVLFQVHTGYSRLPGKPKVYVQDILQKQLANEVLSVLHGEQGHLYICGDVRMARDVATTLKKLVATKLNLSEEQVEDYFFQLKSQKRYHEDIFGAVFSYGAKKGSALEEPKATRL

For the molecule `Cl.Cl.O=S(=O)(NCCNCC=Cc1ccc(Br)cc1)c1cccc2cnccc12` [H89, N-[2-(p-bromocinnamylamino)ethyl]-5-isoquinolinesulfonamide dihydrochloride], the “effect on genistein-induced cAMP” value on GPR78 [1] (10 μM H89, 30 min pre-incubation) was “Most of genistein-induced cAMP was reduced”; at GPR78 [1] (100 μM H89, 30 min pre-incubation) it was “all cAMP accumulation was abolished”. Further, the “effect on basal (constitutive) cAMP level” value is reported as “decrease of the basal cAMP level by approximately half” on GPR78 [1] (10 μM H89, compared to cells with no H89, FIG. 6A) and “completely inhibited cAMP accumulation” on GPR78 [1] (100 μM H89, FIG. 6A). The IC50 on protein kinase A is 0.05 µM.
Consider `Nc1ncnc2c1ncn2C1CCCO1` (centres unmarked) [SQ22536, 9-(Tetrahydro-2-furanyl)-9H-purin-6-amine], for which, on adenylyl cyclase, the IC50 is 20 µM. For the same molecule, at GPR78 [1] (SQ22536 at 20 μM pre-incubated, FIG. 7), the “reduction of genistein-stimulated cAMP” value was 25%. Moreover, the “reduction of cAMP level resulting from constitutive activity of GPR78” value on GPR78 [1] (SQ22536 at 20 μM pre-incubated, absence of genistein, FIG. 7) was 34%.
Take `CC(C)(C)c1cc(C=C(C#N)C#N)cc(C(C)(C)C)c1O` [Tyrphostin A9]: the IC50 at protein tyrosine kinase was 0.04 to 9 µM. Besides, the “cAMP level compared with GPR78-expressing cells stimulated with buffer (Basal)” value on GPR78 [1] (FIG. 1) is recorded as “not higher than the level in GPR78-expressing cells stimulated with buffer”.
Regarding `N#C/C(=C\c1ccc(O)c(O)c1)C(=O)NCc1ccccc1` [Tyrphostin B42], at protein tyrosine kinase, the half-inhibitory concentration (IC50) was 20 µM. Also, the “cAMP level compared with GPR78-expressing cells stimulated with buffer (Basal)” value at GPR78 [1] (FIG. 1) was “not higher than the level in GPR78-expressing cells stimulated with buffer”.
Turning to `COc1ccc(-c2coc3cc(O)cc(O)c3c2=O)cc1` [biochanin A], the “cAMP level compared to buffer control / genistein” value at GPR78 [1] was “only slightly induced cAMP levels”.
Same read-out and setting: to `O=c1c(-c2ccc(O)cc2)coc2cc(O)ccc12` [daidzein] belongs “significantly increased cAMP level comparable to that by genistein”.
For the molecule `c1ccc2c(c1)[I+]c1ccccc1-2` [diphenyleneiodonium Cl, Diphenyleneiodonium Cl], the IC50 in the assay with rabbit aortic rings was 0.3 µM; against GPR26 [2] it was 39 µM; at NO synthase (NOS), 0.03 µM; on GPR78 [3] it was 65 µM.
Take `O=c1c(-c2ccc(O)cc2)coc2cc(O)cc(O)c12` [genistein]: the “potency of GPR30 activation” value at GPR30 is given as “low μM range”. Besides, the “activation in Ca++ flux assay” value at GPR78 [4] is given as “not activated”. Further, the 50% inhibitory concentration (IC50) on protein tyrosine kinase was 1 to 22 µM. In addition, the cAMP production entry at GPR26 [5] was “stimulated cAMP production”. In addition, the EC50 at GPR78 [6] is roughly 6 µM; on GPR78 [1], 6 to 10 µM; on GPR78 [1] (FIG. 2A, read-out: EC50, induction of cAMP), 7 µM; on GPR26 [7] it was roughly 10 µM. Besides, at GPR78 [1] (25 μM genistein, transiently transfected cells, FIG. 1), the “increase of luciferase activity (cAMP production) compared to the mock transfection control” value is on record as “more than 8 fold”.
Turning to `CC(=O)[C@H]1CC[C@H]2[C@@H]3CCC4=CC(=O)CC[C@]4(C)[C@H]3CC[C@]12C` [progesterone], the cAMP stimulation result at GPR78 [1] was “No cAMP stimulation was observed”.
For the molecule `C[n+]1cc2c3c(ccc2c2ccc4cc5c(cc4c21)OCO5)OCO3` [sanguinarine Cl hydrate], the IC50 at GPR26 [2] (cre-luc reporter assay, dose-response curves, read-out: IC50, inhibition of GPR26 activation) was 0.26 µM; at GPR78 [3] (cre-luc reporter assay, dose-response curves, read-out: IC50, inhibition of GPR78 activation), 0.65 µM.
Turning to `C[C@]12CC[C@H]3[C@@H](CCC4=CC(=O)CC[C@@]43C)[C@@H]1CC[C@@H]2O` [testosterone], the cAMP stimulation result on GPR78 [1] is “No cAMP stimulation was observed”.
For “neuropeptide S (SFRNGVGTGMKKTSFQRAKS) [ligand of GPR154, positive control in Ca2+ flux assay]”, the “response in Ca2+ flux assay” value with GPR154 is recorded as “responded to neuropeptide S acutely”.

The record behind these values is patent US7872101B1, “Modulators of the orphan G protein-coupled receptors GPR78 and GPR26” (Schering Corporation, priority 2006, dated 2011).
